Test results from PubChem BioAssay (NCI).
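Protocol summary: plate cells (96-well), add compound at 5 concentrations, incubate 48 h, interpolate endpoints linearly. At the GI50, growth is halved. TGI: concentration producing complete growth inhibition.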

Experiments:
Assay in all cases: inhibition of tumour cell growth, NCI panel, 48 h
[1] = test system: SNB-75 CNS
[2] = test system: UACC-62 melanoma
[3] = test system: EKVX NSCLC
[4] = test system: TK-10 renal
[5] = test system: UO-31 renal
[6] = test system: 786-0 renal
[7] = test system: HOP-62 NSCLC
[8] = test system: CAKI-1 renal
[9] = test system: NCI-H460 lung
[10] = test system: BT-549 breast

Structure (SMILES) | TGI [1] | TGI [2] | TGI [3] | TGI [4] | TGI [5] | TGI [6] | TGI [7] | TGI [8] | TGI [9] | GI50 [1] | GI50 [9] | GI50 [2] | GI50 [3] | GI50 [5] | GI50 [6] | GI50 [7] | GI50 [8] | GI50 [4] | TGI [10]
O=C1[C@@H](c2ccc(Cl)cc2)[C@H]2CC=C[C@H]2N1O | > 100 µM | > 100 µM | > 100 µM | > 100 µM | > 100 µM | > 100 µM | > 100 µM | > 100 µM | – | – | – | – | – | – | – | – | – | – | –
CC12CC3(C)CC(C)(C1)CC(N=[N+]=[N-])(C2)C3 | > 100 µM | > 100 µM | > 100 µM | > 100 µM | > 100 µM | > 100 µM | > 100 µM | > 100 µM | > 100 µM | – | – | – | – | – | – | – | – | – | –
CC(=O)N(CCN)CCN | > 100 µM | > 100 µM | > 100 µM | > 10 µM | > 10 µM | > 10 µM | > 10 µM | > 10 µM | > 10 µM | – | – | – | – | – | – | – | – | – | –
O=c1nc(-c2ccccc2)c2c3c(cccn13)CCC2 | > 100 µM | > 100 µM | – | > 100 µM | > 100 µM | > 100 µM | > 100 µM | > 100 µM | > 100 µM | – | – | – | – | – | – | – | – | – | –
Cc1cc(C)c2c(c1)CN1CN2Cc2cc(C)cc(C)c21 | 24.8 µM | 35.9 µM | 35.1 µM | 37.7 µM | 43.5 µM | 34.7 µM | 53.2 µM | > 100 µM | 29.6 µM | – | – | – | – | – | – | – | – | – | –
O=[N+]([O-])c1ccc(N=Nc2c(O)[nH]c3ccc([N+](=O)[O-])cc23)cc1 | > 100 µM | 36.5 µM | > 100 µM | 54.7 µM | 59.8 µM | 17 µM | 38.3 µM | > 100 µM | 26.4 µM | – | – | – | – | – | – | – | – | – | –
CC1(C)C(=O)C(O)=CC2C1=CCC1C2(C)C(=O)CC2(C)C(C(C)(O)C(=O)CC(O)C(C)(C)O)C(O)CC12C (stereo unspecified) | 4.77 µM | 29.7 µM | 38.8 µM | 5.94 µM | 4.49 µM | 5.65 µM | 11.5 µM | 5.1 µM | 56.5 µM | 1740 nM | – | – | – | – | – | – | – | – | –
Cc1cc([N+](=O)[O-])c(C)c2c1[nH]c1ccc(/C(CCC3CCCC3)=N\N)cc12 | 46.7 µM | – | 32 µM | 27.3 µM | 30 µM | 28 µM | 36.7 µM | – | > 100 µM | – | – | – | – | – | – | – | – | – | –
Cc1cc(Cl)ccc1NC(=O)C(=O)Cc1nc2ccc(C(=O)c3ccccc3)cc2[nH]c1=O | > 100 µM | > 100 µM | > 100 µM | > 100 µM | > 100 µM | > 100 µM | > 100 µM | > 100 µM | > 100 µM | – | – | – | – | – | – | – | – | – | –
CC[O-].CC[O-].O=C1C(=C([O-])c2ccccc2)C(=O)c2ccccc21.O=C1C(=C([O-])c2ccccc2)C(=O)c2ccccc21.[Ti+4] | > 100 µM | > 100 µM | > 100 µM | – | > 100 µM | > 100 µM | > 100 µM | > 100 µM | > 100 µM | > 100000 nM | 42900 nM | > 100000 nM | 24.3 µM | > 100000 nM | > 100000 nM | > 100000 nM | 29.6 µM | – | –
O=C(c1ccccc1)c1c(CC(O)c2cccnc2)n(C(=O)c2ccccc2)c2ccccc12 (stereo unspecified) | 32.4 µM | 34.3 µM | – | 86.3 µM | 32.6 µM | 99.4 µM | 30.4 µM | 70.6 µM | 36.4 µM | – | – | – | – | – | – | – | – | – | –
N#CC(C#N)SCc1ccccc1 | > 96 µM | > 93.1 µM | > 100 µM | > 100 µM | > 100 µM | > 100 µM | > 100 µM | > 100 µM | > 41.6 µM | – | – | – | – | – | – | – | – | – | –
CC(C)c1cccc(C(C)C)c1NC(=O)C(=O)C(C(=O)c1ccccc1-c1ccccc1)C1OC(=O)c2ccccc21 (stereo unspecified) | – | 44.1 µM | – | 46.1 µM | 36.5 µM | 36.8 µM | – | 76.5 µM | 36.5 µM | – | – | – | – | – | – | – | – | – | –
N=C(N)SCc1cn2ccccc2n1 | > 100 µM | – | > 100 µM | > 100 µM | > 100 µM | > 100 µM | > 100 µM | > 100 µM | > 100 µM | – | – | – | – | – | – | – | – | – | –
Cc1c(C)c2cc3c(=O)ccoc3c(C)c2oc1=O | 85.2 µM | > 100 µM | > 100 µM | > 100 µM | > 100 µM | > 100 µM | > 100 µM | – | > 100 µM | – | – | – | – | – | – | – | – | – | –
COc1ccc([C@H]2CC(=O)N3CCCC3N2)cc1 (stereo partly specified) | > 100 µM | > 100 µM | > 100 µM | > 100 µM | > 100 µM | > 100 µM | > 100 µM | > 100 µM | > 100 µM | – | – | – | – | – | – | – | – | – | –

Structure (SMILES) | TGI [1] | TGI [2] | TGI [3] | TGI [4] | TGI [5] | TGI [6] | TGI [7] | TGI [8] | TGI [9] | GI50 [1] | GI50 [9] | GI50 [2] | GI50 [3] | GI50 [5] | GI50 [6] | GI50 [7] | GI50 [8] | GI50 [4] | TGI [10]
Cc1cc(O)c2c(c1)C(O)(c1ccc3c(c1O)C(=O)c1c(O)cc(C)cc1C3(O)C1OC(CO)C(O)C(O)C1O)c1cccc(O)c1C2=O (stereo unspecified) | 27.5 µM | 25.3 µM | 28.2 µM | 27.2 µM | 32 µM | 29.2 µM | 28.9 µM | 31.7 µM | 27.9 µM | – | – | – | – | – | – | – | – | – | –
CCc1ccccc1NC(=O)C(=O)C(C(=O)c1ccc(OC)cc1)c1ccc(OC)cc1 (stereo unspecified) | – | > 100 µM | > 100 µM | > 100 µM | > 100 µM | > 100 µM | > 100 µM | > 100 µM | > 100 µM | – | – | – | – | – | – | – | – | – | –
O=C(CCc1nc(=S)[nH][nH]1)NC12CC3CC(CC(C3)C1)C2 | > 100 µM | > 100 µM | > 100 µM | > 100 µM | > 100 µM | > 100 µM | > 100 µM | > 100 µM | > 100 µM | – | – | – | – | – | – | – | – | – | –
COc1ccc(C2C(Cl)C(=O)N2n2cnc3ccccc3c2=O)cc1OC (stereo unspecified) | 84.7 µM | > 100 µM | > 100 µM | > 100 µM | > 100 µM | > 100 µM | > 100 µM | > 100 µM | > 100 µM | – | – | – | – | – | – | – | – | – | –
COc1ccc(C(C2=C(C)C(=O)c3ccccc3C2=O)c2ccc(C(C)C)cc(=O)c2O)cc1 (stereo unspecified) | 6.47 µM | – | – | – | 5.12 µM | 6.26 µM | 6.65 µM | 7.91 µM | 12.6 µM | – | – | – | – | – | – | – | – | – | –
CSc1nc2c(c(O)c(C)c(=O)n2C2OC(COC(C)=O)C(OC(C)=O)C(OC(C)=O)C2OC(C)=O)c(=O)n1C (stereo unspecified) | > 100 µM | > 100 µM | > 100 µM | > 100 µM | > 100 µM | > 100 µM | > 100 µM | > 100 µM | > 100 µM | – | – | – | – | – | – | – | – | – | –
CC[C@H](C)[C@H](NC(=O)c1cnccn1)C(=O)N(C)[C@H](C[C@@H](OC(C)=O)c1nc(C(=O)N[C@@H](Cc2ccccc2)C[C@H](C)C(=O)OC)cs1)C(C)C | – | > 33.3 µM | > 33.3 µM | > 33.3 µM | > 33.3 µM | > 21.9 µM | > 33.3 µM | – | > 33.3 µM | – | 1150 nM | 105 nM | 1.75 µM | 2230 nM | 1710 nM | 1880 nM | – | 7.18 µM | –
C/C(=N/N(C=O)C[n+]1ccccc1)C(CN(CC(C)C)CC(C)C)C(=O)Nc1ccc(C)cc1C (stereo unspecified) | – | > 100 µM | > 100 µM | > 100 µM | 84.3 µM | > 100 µM | > 100 µM | > 100 µM | > 100 µM | – | – | – | – | – | – | – | – | – | –
COC(=O)C1=CCON(c2ccccc2)C1c1ccccc1 (stereo unspecified) | > 100 µM | > 100 µM | > 100 µM | > 100 µM | > 100 µM | > 100 µM | > 100 µM | > 100 µM | > 100 µM | – | – | – | – | – | – | – | – | – | –
COc1cc2nncc(Sc3cnnc4ccccc34)c2cc1OC | – | > 100 µM | > 100 µM | 81.3 µM | 47.9 µM | 96.9 µM | > 100 µM | > 100 µM | 50.4 µM | – | – | – | – | – | – | – | – | – | –
Nc1cc2c3c(cccc3c1)NC2=O | > 100 µM | > 100 µM | > 100 µM | > 100 µM | > 100 µM | > 100 µM | > 100 µM | > 100 µM | > 100 µM | – | – | – | – | – | – | – | – | – | –
CC(C)(C)OC(=O)NCC(C#N)CNC(=O)OC(C)(C)C | – | > 100 µM | > 100 µM | > 100 µM | > 100 µM | > 100 µM | > 100 µM | – | > 100 µM | – | – | – | – | – | – | – | – | – | > 100 µM
O=C(CC(C(=O)c1cccs1)c1ccc2c(c1)OCO2)c1ccc(Br)cc1 (stereo unspecified) | > 100 µM | > 100 µM | > 100 µM | > 100 µM | > 100 µM | > 100 µM | > 100 µM | > 100 µM | > 100 µM | – | – | – | – | – | – | – | – | – | –
Clc1ccc([O][In]([O]c2ccc(Cl)cn2)[O]c2ccc(Cl)cn2)nc1 | > 100 µM | > 100 µM | > 100 µM | > 100 µM | > 100 µM | > 100 µM | – | > 100 µM | > 100 µM | > 100000 nM | > 100000 nM | > 100000 nM | > 100 µM | > 100000 nM | > 100000 nM | – | > 100 µM | > 100 µM | –
COc1cc(Nc2ccnc(N3CCN(c4ccnc5cc(Cl)ccc45)CC3)n2)cc(OC)c1 | 6.81 µM | 3.76 µM | – | > 100 µM | > 30.7 µM | 4.6 µM | 14.2 µM | – | > 100 µM | 1950 nM | 1510 nM | 614 nM | – | 938 nM | 1600 nM | 1980 nM | – | 2.22 µM | –
Fc1cccc(Cl)c1C1SCc2nc3ccccc3n21 (stereo unspecified) | > 100 µM | 37.5 µM | > 100 µM | > 100 µM | > 100 µM | > 100 µM | > 100 µM | > 100 µM | > 100 µM | – | – | – | – | – | – | – | – | – | –
